Test results taken from paper PMC8253220, “Molecular design, synthesis and in vitro biological evaluation of thienopyrimidine–hydroxamic acids as chimeric kinase HDAC inhibitors: a challenging approach to combat cancer” (Journal of Enzyme Inhibition and Medicinal Chemistry, 2021).
pIC50: −log10 of the molar value. “And” between values parts separate entries of the source, which are not always exact repeats. Equal values may be shown once.

Legend:
BT-549 = assay: NCI one-dose screen; assay type: cell-based, human; conditions: Breast BT-549, 10 µM single dose
In short: (§1)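 One concentration (10 μM) applied to each line of the full NCI-60 panel; percent growth compared against untreated cells.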

SN12C = assay: NCI one-dose screen; assay type: cell-based, human; conditions: Renal SN12C, 10 µM single dose
In short: as §1

SK-MEL-5 = assay: NCI one-dose screen; assay type: cell-based, human; conditions: Melanoma SK-MEL-5, 10 µM single dose
In short: as §1

SNB-75 = assay: NCI one-dose screen; assay type: cell-based, human; conditions: for Growth Percent: CNS SNB-75, 10 µM single dose
In short: (§2)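 Single dose of 10 μM tested across the full NCI-60 cell panel. Values are percent growth inhibition relative to untreated control cells, following standard NCI methodology.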

U251 = assay: NCI one-dose screen; assay type: cell-based, human; conditions: CNS U251, 10 µM single dose
In short: as §2

HCT-15 = assay: NCI one-dose screen; assay type: cell-based, human; conditions: Colon HCT-15, 10 µM single dose
In short: as §1

NCI/ADR-RES = assay: NCI one-dose screen; assay type: cell-based, human; conditions: Ovarian NCI/ADR-RES, 10 µM single dose
In short: as §1

SK-MEL-28 = assay: NCI one-dose screen; assay type: cell-based, human; conditions: Melanoma SK-MEL-28, 10 µM single dose
In short: (§3)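 Following the standard NCI-60 protocol, compounds were applied once at 10 μM to all 60 cancer lines. Read-out is percent growth versus untreated controls, expressed as inhibition %.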

UO-31 = assay: NCI one-dose screen; assay type: cell-based, human; conditions: for Growth Percent: Renal UO-31, 10 µM single dose
In short: as §2

OVCAR-4 = assay: NCI one-dose screen; assay type: cell-based, human; conditions: Ovarian OVCAR-4, 10 µM single dose
In short: as §1

NCI-H322M = assay: NCI one-dose screen; assay type: cell-based, human; conditions: NSCLC NCI-H322M, 10 µM single dose
In short: as §1

NCI-H23 = assay: NCI one-dose screen; assay type: cell-based, human; conditions: NSCLC NCI-H23, 10 µM single dose
In short: (§4)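 Treated at 10 μM (single dose) within the NCI full 60-line panel. Inhibition % computed from growth against untreated control.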

CCRF-CEM = assay: NCI one-dose screen; assay type: cell-based, human; conditions: Leukemia CCRF-CEM, 10 µM single dose
In short: as §1

PC-3 = assay: NCI one-dose screen; assay type: cell-based, human; conditions: Prostate PC-3, 10 µM single dose
In short: as §3

NCI-H460 = assay: NCI one-dose screen; assay type: cell-based, human; conditions: NSCLC NCI-H460, 10 µM single dose
In short: as §1

HL-60(TB) = assay: NCI one-dose screen; assay type: cell-based, human; conditions: Leukemia HL-60(TB), 10 µM single dose
In short: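 At 10 μM, a single concentration, compounds were evaluated for antiproliferative effect in the NCI 60-line screen, with growth expressed relative to untreated control cells.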

OVCAR-5 = assay: NCI one-dose screen; assay type: cell-based, human; conditions: Ovarian OVCAR-5, 10 µM single dose
In short: as §1

HT29 = assay: NCI one-dose screen; assay type: cell-based, human; conditions: Colon HT29, 10 µM single dose
In short: as §1

OVCAR-8 = assay: NCI one-dose screen; assay type: cell-based, human; conditions: Ovarian OVCAR-8, 10 µM single dose
In short: as §1

MDA-MB-468 = assay: NCI one-dose screen; assay type: cell-based, human; conditions: Breast MDA-MB-468, 10 µM single dose
In short: as §4

K-562 = assay: NCI one-dose screen; assay type: cell-based, human; conditions: Leukemia K-562, 10 µM single dose
In short: as §1

MDA-MB-435 = assay: NCI one-dose screen; assay type: cell-based, human; conditions: Melanoma MDA-MB-435, 10 µM single dose
In short: as §1

full NCI 60 cell panel = assay: NCI one-dose screen, whole panel statistics; assay type: cell-based, human; conditions: 1.00E-5 Molar; for Mean Growth Percent: mean over panel
Method: All of the synthesised structures were selected and submitted to NCI based on computer modelling techniques and the degree of diversity of structures for the evaluation of their antiproliferative activity. The 20 synthesised compounds were selected with their respective NCI codes [NCS D-820157- NCS D-820176] for the inhibition percent assay at an initial single dose of 10 μM on the full NCI 60 cell panel, where the mean graph of the percent growth for all compounds on the full NCI cell panel is evaluated, compared to the untreated control cells (Supplementary Material). In vitro cell line inhibition % of all synthesised compounds is represented in (Table 1 of Supplementary Material).
All of the synthesised compounds (20) were submitted to NCI and selected for in vitro anticancer assay against a panel of 60 cancer cell lines. The methodology of assay and calculations is as reported.

EGFR = EGFR (Homo sapiens, UniProt P00533); assay: In vitro EGFR tyrosine kinase inhibitory assay (Z'-LYTE, SelectScreen); assay type: biochemical
Method: The target compounds were evaluated for their in vitro inhibitory activities against EGFR, VEGFR-2, and HDAC6. The EGFR and VEGFR-2 inhibitory assays were performed at Thermo Fischer Scientific, Madison, WI, USA (SelectScreenServices@thermofisher.com). The HDAC inhibitory assays were performed at BPS Bioscience, San Diego, CA, USA (www.bpsbioscience.com). Initially, all of the synthesised target compounds were evaluated for their percent inhibitory activity against EGFR, VEGFR-2, and HDACs at 10 µM single dose concentration, in which their mean percent inhibition is summarised in (Figure 5, Tables 1 and [2]). Representative compounds were evaluated for their percent inhibitory activity against EGFR and VEGFR-2 at 6 different concentrations (0.1 nM, 1 nM, 10 nM, 100 nM, 1 µM, 10 µM) to subsequently calculate their IC50 values (Table 3). Additionally, all of the synthesised target compounds were submitted to the National Cancer Institute “NCI” Bethesda, Maryland, USA (www.dtp.nci.nih.gov), to evaluate theirs in vitro antiproliferative activities against NCI 60- cancer cell line panel.
In vitro enzyme inhibition determination for the synthesised compounds was carried out in Thermo Fischer Scientific, Madison, WI, USA (SelectScreenServices@thermofisher.com). The EGFR and VEGFR-2 tyrosine kinase % inhibitory activity at a single-dose concentration of 10 µM was performed initially then representative compounds were evaluated at single-dose concentrations of (0.1 nM, 1 nM, 10 nM, 100 nM, 1 µM) using ZYLTE technology. A fluorescence-based, coupled-enzyme format is employed in the biochemical assay and depends on the sensitivity of proteolytic cleavage to non-phosphorylated and phosphorylated peptides. Then IC50 values for selected compounds were determined by GraphPad Prism at Misr international university.

EGFR, sequence (P00533 25-1210): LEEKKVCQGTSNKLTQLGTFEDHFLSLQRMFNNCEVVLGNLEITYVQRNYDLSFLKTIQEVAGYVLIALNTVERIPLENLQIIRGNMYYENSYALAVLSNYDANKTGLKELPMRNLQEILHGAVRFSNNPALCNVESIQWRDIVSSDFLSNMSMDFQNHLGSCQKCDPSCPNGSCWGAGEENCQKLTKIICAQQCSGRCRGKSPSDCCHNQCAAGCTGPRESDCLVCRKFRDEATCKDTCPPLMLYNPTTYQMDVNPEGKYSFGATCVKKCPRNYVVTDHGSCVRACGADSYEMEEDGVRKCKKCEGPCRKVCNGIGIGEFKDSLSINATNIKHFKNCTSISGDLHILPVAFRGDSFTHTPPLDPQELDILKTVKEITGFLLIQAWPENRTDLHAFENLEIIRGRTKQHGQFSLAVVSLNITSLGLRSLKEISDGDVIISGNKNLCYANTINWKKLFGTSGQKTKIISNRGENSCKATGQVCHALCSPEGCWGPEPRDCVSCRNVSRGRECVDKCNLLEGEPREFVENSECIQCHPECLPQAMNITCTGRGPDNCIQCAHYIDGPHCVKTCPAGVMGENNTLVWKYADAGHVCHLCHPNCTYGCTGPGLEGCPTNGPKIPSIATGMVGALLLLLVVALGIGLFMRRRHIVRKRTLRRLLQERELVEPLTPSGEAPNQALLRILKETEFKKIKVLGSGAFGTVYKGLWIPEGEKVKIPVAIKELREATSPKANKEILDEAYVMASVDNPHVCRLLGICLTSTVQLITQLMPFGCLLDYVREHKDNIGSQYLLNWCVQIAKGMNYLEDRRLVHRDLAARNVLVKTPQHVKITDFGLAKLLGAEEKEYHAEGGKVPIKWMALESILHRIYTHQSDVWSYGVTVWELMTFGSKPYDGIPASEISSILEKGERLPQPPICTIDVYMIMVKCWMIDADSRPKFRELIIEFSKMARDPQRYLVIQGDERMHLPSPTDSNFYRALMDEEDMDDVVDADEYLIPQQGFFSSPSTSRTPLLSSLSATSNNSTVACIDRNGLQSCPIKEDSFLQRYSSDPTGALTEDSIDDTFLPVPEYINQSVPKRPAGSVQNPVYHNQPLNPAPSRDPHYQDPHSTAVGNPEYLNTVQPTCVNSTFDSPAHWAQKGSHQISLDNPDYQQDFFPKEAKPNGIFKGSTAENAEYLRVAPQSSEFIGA

| SMILES | melting point [°C] | Growth Percent (BT-549) | Growth Percent (SN12C) | Growth Percent (SK-MEL-5) | Growth Percent (SNB-75) | Growth Percent (U251) | Growth Percent (HCT-15) | Growth Percent (NCI/ADR-RES) | Growth Percent (SK-MEL-28) | Growth Percent (UO-31) | Growth Percent (OVCAR-4) | Growth Percent (NCI-H322M) | Growth Percent (NCI-H23) | Growth Percent (CCRF-CEM) | Growth Percent (PC-3) | Growth Percent (NCI-H460) | Growth Percent (HL-60(TB)) | Growth Percent (OVCAR-5) | Growth Percent (HT29) | Growth Percent (OVCAR-8) | further results |
| --- | --- | --- | --- | --- | --- | --- | --- | --- | --- | --- | --- | --- | --- | --- | --- | --- | --- | --- | --- | --- | --- |
| Cc1c(C(=O)NO)sc2ncnc(Nc3ccc(Cl)cc3)c12 [Compound 15c, 4–(4-chlorophenylamino)-N-hydroxy-5-methylthieno[2,3-d]pyrimidine-6-carboxamide] | 349 | 116.4% and 116.44% | 98.6% and 98.63% | 96.9% and 96.96% | 79.5% and 79.59% | 100.9% and 100.96% | 101.7% and 101.72% | 102.1% and 102.16% | 110.6% and 110.64% | 71.2% | 106.3% and 106.34% | 97.2% and 97.24% | 91.8% and 91.83% | 103.4% and 103.44% | 97.6% and 97.64% | 98.9% and 98.93% | 104.9% and 104.93% | 107.6% and 107.61% | 101.8% and 101.84% | 102.0% and 102.02% | inhibition at 10 µM (SNB-75; Homo sapiens, CNS SNB-75, 10 μM): 20.4%; inhibition at 10 µM (UO-31; Homo sapiens, renal UO-31, 10 μM): 28.8%; Growth Percent (MDA-MB-468): 102.9% and 102.91%; Growth Percent (K-562): 105.0%; Growth Percent (MDA-MB-435): 102.4% and 102.42%; Delta (one dose mean graph) (full NCI 60 cell panel): 28.53%; Range (one dose mean graph) (full NCI 60 cell panel): 83.38%; Mean Growth Percent (full NCI 60 cell panel): 99.73%; inhibition at 0.0001 µM (EGFR; 0.1 nM compound, 10 μM ATP, read-out: % Inhibition mean, EGFR (ErbB1)): 0%; inhibition at 0.001 µM (EGFR; 1 nM compound, 10 μM ATP, read-out: % Inhibition mean, EGFR (ErbB1)): 5%; inhibition at 0.01 µM (EGFR; 10 nM compound, 10 μM ATP, read-out: % Inhibition mean, EGFR (ErbB1)): 34%; inhibition at 0.1 µM (EGFR; 100 nM compound, 10 μM ATP, read-out: % Inhibition mean, EGFR (ErbB1)): 81%; inhibition at 1 µM (EGFR; 1000 nM compound, 10 μM ATP, read-out: % Inhibition mean, EGFR (ErbB1)): 95%; Mean % inhibition EGFR (EGFR; 10 µM single dose): 97%; pIC50 (EGFR; read-out: IC50 in enzyme assays EGFR): 7.72 |
| COc1cccc(NC(=O)Nc2ccc(Nc3ncnc4sc(C(=O)NO)c(C)c34)cc2)c1 [Compound 7b, 1–(4-(6-(hydroxycarbamoyl)-5-methylthieno[2,3-d]pyrimidin-4-ylamino)phenyl)-3–(3-methoxyphenyl)urea] | > 200 | 99.5% and 99.56% | 99.1% and 99.12% | 99.5% | 92.7% and 92.76% | 101.4% and 101.41% | 99.0% and 99.07% | 97.6% and 97.67% | 111.1% and 111.16% | 83.4% and 83.47% | 101.8% and 101.82% | 103.7% | 98.8% and 98.89% | 101.2% and 101.22% | 101.6% and 101.65% | 100.7% and 100.73% | 103.1% and 103.15% | 102.8% and 102.86% | 103.6% and 103.62% | 96.6% and 96.69% | Growth Percent (MDA-MB-468): 98.8% and 98.87%; Growth Percent (K-562): 108.5% and 108.57%; Growth Percent (MDA-MB-435): 101.5% and 101.59%; Delta (one dose mean graph) (full NCI 60 cell panel): 18.14%; Range (one dose mean graph) (full NCI 60 cell panel): 45.12%; Mean Growth Percent (full NCI 60 cell panel): 101.61%; inhibition at 10 µM (EGFR; 10 µM single dose): 39% |
